Experimental data from ChEMBL document CHEMBL1201862, “PubChem BioAssay data set” (2004).
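Cultured in 96-well plates, cells were exposed to test compound for 48 hours across five concentrations. GI50: concentration for 50% inhibition of growth.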 Activity calls are given as the source filed them. Rule as the data show it: active = GI50 up to about 1.1 µM and inactive = higher.

Experiments:
Assay in all cases: NCI anticancer screen, dose series, 48 h
MDA-MB-231 = tested on: MDA-MB-231
SK-MEL-5 = tested on: SK-MEL-5
MCF7 = tested on: MCF7
SW-620 = tested on: SW-620
UO-31 = tested on: UO-31
U-251 = tested on: U-251
SF-295 = tested on: SF-295
LOX IMVI = tested on: LOX IMVI
EKVX = tested on: EKVX
DU-145 = tested on: DU-145
UACC-257 = tested on: UACC-257
HOP-92 = tested on: HOP-92
MOLT-4 = tested on: MOLT-4
SNB-75 = tested on: SNB-75
M14 = tested on: M14
OVCAR-8 = tested on: OVCAR-8
NCI-H460 = tested on: NCI-H460
NCI-H522 = tested on: NCI-H522
ACHN = tested on: ACHN
SF-268 = tested on: SF-268
HOP-62 = tested on: HOP-62
BT-549 = tested on: BT-549
K562 = tested on: K562
PC-3 = tested on: PC-3
MDA-MB-435 = tested on: MDA-MB-435
RXF 393 = tested on: RXF 393
OVCAR-3 = tested on: OVCAR-3
UACC-62 = tested on: UACC-62
SNB-19 = tested on: SNB-19
TK-10 = tested on: TK-10
OVCAR-5 = tested on: OVCAR-5
IGROV-1 = tested on: IGROV-1
A549 = tested on: A549
SK-OV-3 = tested on: SK-OV-3
HT-29 = tested on: HT-29
NCI-H226 = tested on: NCI-H226
CAKI-1 = tested on: CAKI-1
NCI-H23 = tested on: NCI-H23
HL-60 = tested on: HL-60
HCT-15 = tested on: HCT-15
OVCAR-4 = tested on: OVCAR-4
T47D = tested on: T47D
MDA-N = tested on: MDA-N
COLO 205 = tested on: COLO 205
SF-539 = tested on: SF-539
RPMI-8226 = tested on: RPMI-8226
SK-MEL-28 = tested on: SK-MEL-28
SN12C = tested on: SN12C
786-0 = tested on: 786-0
HCT-116 = tested on: HCT-116
NCI/ADR-RES = tested on: NCI/ADR-RES
SR = tested on: SR
A498 = tested on: A498
KM12 = tested on: KM12
CCRF-CEM = tested on: CCRF-CEM
Malme-3M = tested on: Malme-3M
SK-MEL-2 = tested on: SK-MEL-2
Hs-578T = tested on: Hs-578T

## O=C(O)CC1OCC=C2CN3CCC45c6ccccc6NC4C1C2CC35 (stereo not given)
MDA-MB-231
  GI50: > 100 µM (inactive)
SK-MEL-5
  GI50: > 100 µM (inactive)
MCF7
  GI50: > 100 µM (inactive)
SW-620
  GI50: > 100 µM (inactive)
UO-31
  GI50: > 100 µM (inactive)
U-251
  GI50: > 100 µM (inactive)
SF-295
  GI50: > 100 µM (inactive)
LOX IMVI
  GI50: > 100 µM (inactive)
EKVX
  GI50: > 100 µM (inactive)
DU-145
  GI50: > 100 µM (inactive)
UACC-257
  GI50: > 100 µM (inactive)
HOP-92
  GI50: > 100 µM (inactive)
MOLT-4
  GI50: > 100 µM (inactive)
SNB-75
  GI50: 77.1 µM (inactive)
M14
  GI50: > 100 µM (inactive)
OVCAR-8
  GI50: > 100 µM (inactive)
NCI-H460
  GI50: > 100 µM (inactive)
NCI-H522
  GI50: > 100 µM (inactive)
ACHN
  GI50: > 100 µM (inactive)
SF-268
  GI50: > 100 µM (inactive)
HOP-62
  GI50: > 100 µM (inactive)
BT-549
  GI50: > 100 µM (inactive)
K562
  GI50: > 100 µM (inactive)
PC-3
  GI50: > 100 µM (inactive)
MDA-MB-435
  GI50: > 100 µM (inactive)
RXF 393
  GI50: > 100 µM (inactive)
OVCAR-3
  GI50: > 100 µM (inactive)
UACC-62
  GI50: > 100 µM (inactive)
SNB-19
  GI50: > 100 µM (inactive)
TK-10
  GI50: > 100 µM (inactive)
OVCAR-5
  GI50: > 100 µM (inactive)
IGROV-1
  GI50: > 100 µM (inactive)
A549
  GI50: > 100 µM (inactive)
SK-OV-3
  GI50: > 100 µM (inactive)
HT-29
  GI50: > 100 µM (inactive)
NCI-H226
  GI50: > 100 µM (inactive)
CAKI-1
  GI50: > 100 µM (inactive)
NCI-H23
  GI50: > 100 µM (inactive)
HL-60
  GI50: > 100 µM (inactive)
HCT-15
  GI50: > 100 µM
OVCAR-4
  GI50: > 100 µM (inactive)
T47D
  GI50: > 100 µM (inactive)
MDA-N
  GI50: > 100 µM (inactive)
COLO 205
  GI50: > 100 µM (inactive)
SF-539
  GI50: > 100 µM (inactive)
RPMI-8226
  GI50: > 100 µM (inactive)
SK-MEL-28
  GI50: > 100 µM (inactive)
SN12C
  GI50: > 100 µM (inactive)
786-0
  GI50: > 100 µM (inactive)
HCT-116
  GI50: > 100 µM (inactive)
NCI/ADR-RES
  GI50: > 100 µM (inactive)
SR
  GI50: > 100 µM (inactive)
A498
  GI50: > 100 µM (inactive)
KM12
  GI50: > 100 µM (inactive)
CCRF-CEM
  GI50: > 100 µM (inactive)

## C=C/C(C)=C\CC1[C@](C)(O)CC[C@H]2C(C)(C)C(O)CC[C@]12C (stereo not given in full)
MDA-MB-231
  GI50: > 100 µM (inactive)
SK-MEL-5
  GI50: 84.1 µM (inactive)
MCF7
  GI50: 70.1 µM (inactive)
SW-620
  GI50: > 100 µM (inactive)
UO-31
  GI50: > 100 µM (inactive)
U-251
  GI50: > 100 µM (inactive)
SF-295
  GI50: > 100 µM (inactive)
LOX IMVI
  GI50: > 100 µM (inactive)
EKVX
  GI50: > 100 µM (inactive)
DU-145
  GI50: > 100 µM (inactive)
UACC-257
  GI50: > 100 µM (inactive)
HOP-92
  GI50: > 100 µM (inactive)
MOLT-4
  GI50: 33.8 µM (inactive)
SNB-75
  GI50: > 100 µM (inactive)
M14
  GI50: > 100 µM (inactive)
OVCAR-8
  GI50: > 100 µM (inactive)
NCI-H460
  GI50: 78.2 µM (inactive)
NCI-H522
  GI50: 91.4 µM (inactive)
ACHN
  GI50: > 100 µM (inactive)
SF-268
  GI50: > 100 µM (inactive)
K562
  GI50: 34.4 µM (inactive)
Malme-3M
  GI50: > 100 µM (inactive)
PC-3
  GI50: 70 µM (inactive)
MDA-MB-435
  GI50: > 100 µM (inactive)
RXF 393
  GI50: 95.1 µM (inactive)
OVCAR-3
  GI50: 92.3 µM (inactive)
UACC-62
  GI50: > 100 µM (inactive)
SK-MEL-2
  GI50: > 100 µM (inactive)
SNB-19
  GI50: > 100 µM (inactive)
TK-10
  GI50: > 100 µM (inactive)
OVCAR-5
  GI50: > 100 µM (inactive)
IGROV-1
  GI50: > 100 µM (inactive)
A549
  GI50: > 100 µM (inactive)
HT-29
  GI50: 44.3 µM (inactive)
NCI-H226
  GI50: > 100 µM (inactive)
CAKI-1
  GI50: > 100 µM (inactive)
NCI-H23
  GI50: 55.8 µM (inactive)
HL-60
  GI50: 17.7 µM (inactive)
HCT-15
  GI50: > 100 µM
OVCAR-4
  GI50: > 100 µM (inactive)
Hs-578T
  GI50: > 100 µM (inactive)
MDA-N
  GI50: > 100 µM (inactive)
COLO 205
  GI50: > 100 µM (inactive)
SF-539
  GI50: > 100 µM (inactive)
RPMI-8226
  GI50: 42.6 µM (inactive)
SK-MEL-28
  GI50: > 100 µM (inactive)
SN12C
  GI50: > 100 µM (inactive)
786-0
  GI50: > 100 µM (inactive)
HCT-116
  GI50: 54.8 µM (inactive)
NCI/ADR-RES
  GI50: > 100 µM (inactive)
SR
  GI50: 40.8 µM (inactive)
A498
  GI50: > 100 µM (inactive)
KM12
  GI50: > 100 µM (inactive)
CCRF-CEM
  GI50: 27.5 µM (inactive)

## CC(=O)OCC(OC(C)=O)C(OC(C)=O)C(/C=N/N(C(C)=O)S(=O)(=O)c1ccc(/C=C2\NC(=O)NC2=O)cc1)OC(C)=O (stereo not given)
MDA-MB-231
  GI50: > 100 µM (inactive)
SK-MEL-5
  GI50: > 100 µM (inactive)
SW-620
  GI50: > 100 µM (inactive)
UO-31
  GI50: > 100 µM (inactive)
U-251
  GI50: > 100 µM (inactive)
EKVX
  GI50: > 100 µM (inactive)
DU-145
  GI50: > 100 µM (inactive)
UACC-257
  GI50: > 100 µM (inactive)
MOLT-4
  GI50: > 100 µM (inactive)
M14
  GI50: > 100 µM (inactive)
NCI-H460
  GI50: > 100 µM (inactive)
ACHN
  GI50: > 100 µM (inactive)
SF-268
  GI50: > 100 µM (inactive)
PC-3
  GI50: > 100 µM (inactive)
MDA-MB-435
  GI50: > 100 µM (inactive)
OVCAR-3
  GI50: > 100 µM (inactive)
UACC-62
  GI50: > 100 µM (inactive)
SNB-19
  GI50: > 100 µM (inactive)
TK-10
  GI50: > 100 µM (inactive)
OVCAR-5
  GI50: > 100 µM (inactive)
IGROV-1
  GI50: > 100 µM (inactive)
A549
  GI50: > 100 µM (inactive)
SK-OV-3
  GI50: > 100 µM (inactive)
NCI-H23
  GI50: > 100 µM (inactive)
HCT-15
  GI50: > 100 µM
OVCAR-4
  GI50: > 100 µM (inactive)
Hs-578T
  GI50: > 100 µM (inactive)
T47D
  GI50: > 100 µM (inactive)
MDA-N
  GI50: > 100 µM (inactive)
COLO 205
  GI50: > 100 µM (inactive)
786-0
  GI50: > 100 µM (inactive)
HCT-116
  GI50: > 100 µM (inactive)
NCI/ADR-RES
  GI50: > 100 µM (inactive)
SR
  GI50: > 100 µM (inactive)
A498
  GI50: > 100 µM (inactive)
CCRF-CEM
  GI50: 50.6 µM (inactive)
